Conditions: Surface laser light scattering (SLLS); for viscosity: Liquid

O=C(C(F)(F)C(F)(F)F)C(F)(C(F)(F)F)C(F)(F)F [dodecafluoro-2-methylpentan-3-one]
Conditions | surface tension liquid-gas [mN/m] | viscosity [mPa·s]
303.16 K | 10.09 | 0.585
313.12 K | 9.26 | 0.4939
313.18 K | 9.24 | 0.5033
323.15 K | 8.43 | 0.4357
333.12 K | 7.56 | 0.3776
343.15 K | 6.7 | 0.329
353.16 K | 5.84 | 0.2907
363.14 K | 4.99 | 0.2569
373.14 K | 4.19 | 0.228
383.13 K | 3.44 | 0.1998
393.15 K | 2.71 | 0.1719
403.17 K | 2.02 | 0.1471
413.18 K | 1.37 | 0.1309
423.15 K | 0.78 | 0.104
433.02 K | 0.27 | 0.0768

FC(F)(F)/C=C/Cl [(E)-1-chloro-3,3,3-trifluoroprop-1-ene]
Conditions | surface tension liquid-gas [mN/m] | viscosity [mPa·s]
303.14 K | 13.3 | 0.2857
313.15 K | 12.37 | 0.2504
323.19 K | 10.89 | 0.2265
333.18 K | 9.74 | 0.2079
343.16 K | 8.62 | 0.1891
353.19 K | 7.58 | 0.1695
363.15 K | 6.4 | 0.1595
373.14 K | 5.38 | 0.1406
373.17 K | 5.38 | 0.1448
383.15 K | 4.37 | 0.1318
393.17 K | 3.41 | 0.1191
403.15 K | 2.45 | 0.1047
